Columns and labels:
[1] = target: CnArg1 (IP3-4K from C. neoformans) (Cryptococcus neoformans var. grubii, UniProt J9W3G0); assay: Kinase-Glo enzyme inhibition assay, recombinant CnArg1; format: biochemical; conditions: 10 µM ATP, 50 µM IP3, 2.5 ng/µL enzyme, 10 min, room temperature, 5% DMSO; mean ± SEM
Description: (§1) The 2,6-disubstituted purine compounds are ATP-competitive IPK inhibitors. […] The amount of IP3 and kinase used for each recombinant enzyme was determined following the manufacturer’s instructions, and this concentration was used to assess the inhibitory properties of TNP analogues against each of the recombinant enzymes.
(§2) The analogues were dissolved in DMSO. For the assay, the inhibitors were added to the reaction mixture to achieve a final concentration of 50 µM in 5% DMSO (1:20 dilution). To achieve inhibitor concentrations lower than 50 µM in the assay, the inhibitor stock was first serially diluted two-fold in DMSO and added to the reaction mixture, to achieve concentrations ranging between 0.8 μM and 50 µM in 5% DMSO. Once all analogues and their dilution series had been added, the reaction was started by adding an optimal amount of recombinant IP3-4K enzyme. The reaction was stopped after 10-min incubation at room temperature by adding a 50 µL of Kinase-Glo® reagent. The mixture was incubated at room temperature in the dark for 10–15 min. Luminescence (RLU) was measured using a SpectraMax iD5 and an integration time of 0.5 s. Percent enzyme activity was defined as (RLUnegative − RLUsample)/(RLUnegative − RLUpositive) × 100. ‘Positive’ refers to 100% enzyme activity (no inhibitor used as the positive control), while ‘negative’ refers to 0% enzyme activity (no enzyme used as the negative control).
(§3) Next, we determined the inhibitory properties of TNP. TNP is an ATP-competitive inhibitor [34]. […] IP3 and enzyme concentrations were also optimised following the manufacturer’s instructions. […] This optimal amount of IP3 was then used to test varying concentrations of the kinase ranging from 0 to 20 ng/µL. The amount of kinase that produced luminescence values in the linear range of the kinase titration curve was deemed to be the optimal kinase amount.

[2] = tested on: CnArg1 (IP3-4K from C. neoformans); assay: as above; format: biochemical; conditions: selectivity, ratio higher than 1 = more selective for CnArg1
Description: as §1, §2, §3

CnArg1 = CnArg1 (Cryptococcus neoformans var. grubii, UniProt J9W3G0); assay: Surface plasmon resonance (SPR) binding to immobilised CnArg1; conditions: 6.25–200 µM, 10 °C, steady-state affinity, mean ± SEM
Description: SPR was carried out on a Biacore T200 (Cytiva, Marlborough, MA, USA). A streptavidin surface was prepared by amine coupling streptavidin to a CM5 chip using standard procedures in 20 mM HEPES, 150 mM NaCl pH 7.5 at 37 °C. Briefly, the surface was activated by injection of 1:1 NHS:EDC (N-ethyl-N’-(3-(dimethylamino)propyl)carbodiimide/N-hydroxysuccinimide) followed by a 7-min injection of 100 µg/mL streptavidin in 10 mM sodium acetate (pH 4.5) at a flow rate of 2 µL/min. Unreacted groups on the surface were blocked by injection of 1 M ethanolamine (pH 8.0). Purified recombinant CnArg1 was N-terminally biotinylated and immobilised to a level of ~4000 RU onto the streptavidin surface at 25 °C in 20 mM HEPES, 200 mM NaCl, 5 mM MgCl2 (pH 7.5) at a flow rate of 2 µL/min.
For analysis, compounds were prepared to 50 mM in 100% DMSO and diluted to the desired concentration in SPR running buffer; 20 mM HEPES (pH 7.5), 200 mM NaCl, 5 mM MgCl2, 5% DMSO. Analysis was carried out using multi-cycle kinetics over a compound concentration range of 6.25–200 µM in running buffer at 10 °C, with an association time of 60 s and a dissociation time of 120 s. Data were reference subtracted, and a solvent correction applied. Analysis was carried out using Biacore T200 Evaluation Software and all data fit to a 1:1 Langmuir binding isotherm.

HsIPMK = HsIPMK (Homo sapiens, UniProt Q8NFU5); assay: Kinase-Glo enzyme inhibition assay, recombinant HsIPMK; note: 6 ng/µL enzyme; format: biochemical; set-up: GST (N, cleaved yes); made in house; host or cells: E. coli BL21 (DE3); plasmid made by GenScript
Description: as §1, §2, §3

Chain of HsIPMK (Q8NFU5 whole entry): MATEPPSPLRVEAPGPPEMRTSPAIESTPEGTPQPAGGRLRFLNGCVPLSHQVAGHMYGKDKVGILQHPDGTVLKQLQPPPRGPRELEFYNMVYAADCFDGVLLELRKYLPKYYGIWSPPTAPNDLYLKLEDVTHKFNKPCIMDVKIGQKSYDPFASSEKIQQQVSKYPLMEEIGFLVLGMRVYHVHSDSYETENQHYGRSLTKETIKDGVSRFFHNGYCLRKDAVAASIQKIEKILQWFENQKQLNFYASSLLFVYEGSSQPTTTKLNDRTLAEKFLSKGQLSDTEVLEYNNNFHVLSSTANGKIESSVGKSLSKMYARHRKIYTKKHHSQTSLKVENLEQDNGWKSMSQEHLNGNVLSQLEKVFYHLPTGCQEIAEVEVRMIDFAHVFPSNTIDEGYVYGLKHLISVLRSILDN
Chain of CnArg1 (IP3-4K from C. neoformans) (Cryptococcus neoformans var. grubii, UniProt J9W3G0) (J9W3G0 entry or part of it): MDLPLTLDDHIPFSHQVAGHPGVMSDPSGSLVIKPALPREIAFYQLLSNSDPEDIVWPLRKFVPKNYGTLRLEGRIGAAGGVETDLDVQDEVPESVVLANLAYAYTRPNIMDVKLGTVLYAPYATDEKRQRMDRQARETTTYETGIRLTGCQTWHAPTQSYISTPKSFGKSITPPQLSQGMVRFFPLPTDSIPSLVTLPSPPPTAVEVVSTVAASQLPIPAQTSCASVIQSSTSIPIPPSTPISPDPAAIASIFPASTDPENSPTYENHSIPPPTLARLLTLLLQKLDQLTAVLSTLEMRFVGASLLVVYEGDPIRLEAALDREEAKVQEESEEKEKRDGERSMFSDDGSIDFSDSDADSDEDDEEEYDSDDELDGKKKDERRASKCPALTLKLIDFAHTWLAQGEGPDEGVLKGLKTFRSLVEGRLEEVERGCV
Chain of CnArg1 (J9W3G0 entry or part of it): as above

COCCNc1nc(Nc2ccc(O)cc2)nc2[nH]cnc12 [Compound 37]
IC50 [1]: 17 ± 2 µM | HsIPMK/CnArg1 IC50 ratio [2]: 0.4 | KD (CnArg1): No binding | IC50 (HsIPMK): 7 ± 1 µM
